# From patent publication US5149793A, “Exo-3',4'-O-benzylidene-3"-demethylchartreusin and its salts” (Ishihara Sangyo Kaisha, Ltd., priority 1989, dated 1992)
# Read-outs that look alike come from different tables or passages of the source.
# What was measured:
# [1] = result in words; already known; cited from earlier work
# [2] = system: B-16 melanoma cells; test: Antitumorous activity: growth inhibition of B-16 melanoma cells (Test Example 1); type: cell-based, mice; details: Mus musculus, B16, 1 hour drug exposure at 37° C., then 48 hours incubation
# Description: B-16 melanoma cells were suspended in RPMI 1640 medium containing 5% fetal bovine serum in a concentration of 4×10^4 cells/ml. The resulting suspension was placed in the 12 wells (1 ml/well) of a plate-cum-wells, wherein preliminary incubation was then carried out for 24 hours. A test drug was dissolved in a mixture of dimethyl sulfoxide and a culture medium of 5% serum - RPMI 1640 (1:3 in volume ratio). Thus, drug solutions having various respective drug concentrations were prepared. 20 μl each of these drug solutions were respectively added to the wells of the plate. The resulting drug-added suspensions were subjected to incubation at 37° C. for 1 hour. Subsequently, the incubated medium were removed from the respective wells, which were then washed once with the same culture medium as mentioned above. Thereafter, the same culture medium as mentioned above was freshly placed in each of the wells of the plate, followed by incubation at 37° C. for 48 hours.
# The number of cells in each well was counted according to a customary method using a Coulter counter.
# The values of growth control rate in the members of each drug-treated group, which members corresponding to the respective wells of the plate were culture broths respectively treated with drug solutions having various respective drug concentrations, were calculated by comparison with the growth rate of the drug-untreated group. The inhibitory concentration of each test drug in which the growth control rate was 50% (IC50) was calculated from the above-calculated values of growth control rate.
# [3] = result in words; already known; cited from earlier work; remark: listed apart in the source
# [4] = system: cells of experimental tumors of mice and the like, such as P-388 leukemia, L-1210 leukemia, B-16 melanoma, M-5076 sarcoma, Colon 26, and Lewis lung carcinoma; test: Activity against cells of experimental tumors (general statement); type: cell-based; details: exo-BDMC or its salts; result in words
# [5] = system: Flavobacterium meningosepticum IFO 12535; test: Antibacterial activity, agar dilution method (Test Example 2); type: cell-based; details: Elizabethkingia meningoseptica, IFO12535
# Description: (§1) The minimum inhibitory concentrations (MIC) of exo-BDMC against growth of various microorganisms were examined according to an agar dilution method.
# [6] = system: Bacillus megaterium IFO 12108; test: as above; type: cell-based; details: Priestia megaterium, IFO12108
# Description: as §1
# [7] = system: Bacillus subtilis PCI 219; test: as above; type: cell-based; details: PCI219
# Description: as §1
# [8] = system: Staphylococcus aureus 209P; test: as above; type: cell-based
# Description: as §1
# [9] = system: Gram-positive bacteria or Gram-negative bacteria; test: Growth inhibition of bacteria (general statement); type: cell-based; details: exo-BDMC or its salts; result in words
# [10] = design: species or system mice; details: mouse, in vivo
# Description: Exo-6-O-(N-trifluoroacetyl-β-aminoisobutyryl)-3',4'-O-benzylidenechartreusin was intravenously injected in a dose of 40 mg/kg into 160 DDY mice. 300 g of feces excreted within 24 hours after the intravenous injection were collected and ground down in a mortar. 1 liter of a mixed solvent (methanol:chloroform=1:1 in volume ratio) was added to the ground-down feces. The resulting mixture was stirred at 60° C. for 30 minutes to effect extraction, followed by separation of insolubles by filtration. The separated insolubles were admixed with 700 ml of the same mixed solvent as mentioned above to effect extraction again. The two resulting extracts were put together and concentrated under reduced pressure to obtain 9 g of crude exo-BDMC. The crude exo-BDMC was subjected to a purification operation by silica gel column chromatography (developing solvent: chloroform+methanol). The above-mentioned purification operation was repeated. An exo-BDMC-containing fraction obtained by the foregoing purification procedure was concentrated and then recrystallized from a mixed solvent (chloroform:methanol:ethyl acetate=2:1:1 in volume ratio) to obtain 50 mg of exo-BDMC. […]
# [11] = Antibacterial activity (general statement); details: result in words
# [12] = Antitumorous activity (general statement); details: result in words
SMILES,antibacterial activity [1],IC50 [2],antitumorous activity [3],activities against cells of experimental tumors [4],MIC [5],MIC [6],MIC [7],MIC [8],capacity of inhibiting growth of bacteria [9],"presence in the excreta of mice (metabolite of exo-3',4'-O-benzylidenechartreusin derivatives) [10]",antibacterial activity [11],antitumorous activity [12]
CO[C@H]1[C@@H](O)[C@@H](C)O[C@H](O[C@H]2[C@H](Oc3cccc4c(O)c5c(=O)oc6ccc(C)c7c(=O)oc(c34)c5c67)O[C@H](C)[C@H](O)[C@@H]2O)[C@@H]1O [chartreusin],has antibacterial and antitumorous activities,9.2 µg/mL,has antibacterial and antitumorous activities,–,–,–,–,–,–,–,–,–
"CO[C@H]1[C@@H](O)[C@@H](C)O[C@H](O[C@H]2[C@H](Oc3cccc4c(O)c5c(=O)oc6ccc(C)c7c(=O)oc(c34)c5c67)O[C@H](C)[C@@H]3OC(c4ccccc4)O[C@@H]32)[C@@H]1O (stereo partly drawn) [exo-BC, Exo-3',4'-O-benzylidenechartreusin, reference compound]",–,2.1 µg/mL,–,–,–,–,–,–,–,–,–,–
"Cc1ccc2oc(=O)c3c(O)c4cccc(O[C@@H]5O[C@H](C)[C@@H]6OC(c7ccccc7)O[C@@H]6[C@H]5O[C@H]5O[C@H](C)[C@H](O)[C@H](O)[C@H]5O)c4c4oc(=O)c1c2c34 (stereo partly drawn) [exo-BDMC, exo-3',4'-O-benzylidene-3""-demethylchartreusin]",–,0.9 µg/mL,–,exhibit activities against cells of experimental tumors,1.56 µg/mL,1.56 µg/mL,1.56 µg/mL,3.13 µg/mL,strongly inhibiting growth of either Gram-positive bacteria or Gram-negative bacteria,exists in the excreta of mice,has antitumorous and antibacterial activities,has antitumorous and antibacterial activities
"Cc1ccc2oc(=O)c3c(O)c4cccc(O[C@@H]5O[C@H](C)[C@H](O)[C@H](O)[C@H]5O[C@H]5O[C@H](C)[C@H](O)[C@H](O)[C@H]5O)c4c4oc(=O)c1c2c34 [3""-DMC, 3""-demethylchartreusin]",–,11 µg/mL,–,–,–,–,–,–,–,–,has antitumorous and antibacterial activities,has antitumorous and antibacterial activities
